Source: paper PMC9913752, “Proof-of-Concept Study of an Alpha-Fetoprotein-Derived Peptide for the Management of Canine Mammary Cancer” (Animals : an Open Access Journal from MDPI, 2023)
Where a SMILES comes first, the peptide text is derived from it. [ ]: non-standard residue; d: D form. Hyp = O=C(O)[C@@H]1C[C@@H](O)CN1

Tests used:
in vivo = experiment: in vivo; design: species or system Macaca mulatta; details: monkey
Protocol: (§1) AFPep (4 mg/kg) was administered by parenteral (i.v., s.c.) as well as oral routes to normal adult mice, dogs, and monkeys. Blood samples were obtained from anesthetized mice via the retroorbital plexus. Blood samples from dogs and monkeys were obtained through an indwelling catheter in the cephalic vein by the veterinarian staff at Albany Medical College. Dogs were awake and alert during sampling; monkeys were under anesthesia, as previously described. For the oral route, gavage was used in mice and monkeys; enteric capsules ([…]) containing AFPep were used and were readily swallowed by dogs. AFPep blood levels were measured using lliquid chromatography and mass spectrometry, as previously described.

Pharmacokinetics in dogs = format: in vivo; details: dog; for AUC / Cmax: plasma LC/MS/MS
Protocol: as §1

Pharmacokinetics in mice = format: in vivo; details: mouse; for Cmax / AUC: plasma LC/MS/MS; for half-life: in vivo
Protocol: as §1

[1] = p.o. enteric capsules (DRcaps), 4 mg/kg per footnote (100 mg/kg orally)

- AUC (in vivo; iv, 4 mg/kg): 26200 ng·h/mL
- Cmax (in vivo; iv, 4 mg/kg): 13000 ng/mL
- half-life (in vivo; iv, 4 mg/kg): 107 min
- half-life (in vivo; po): 810 min
- AUC (in vivo; sc, 4 mg/kg): 23400 ng·h/mL
- Cmax (in vivo; sc, 4 mg/kg): 8200 ng/mL
- half-life (in vivo; sc, 4 mg/kg): 27 min
- T1/2 (Pharmacokinetics in dogs; in vivo): 39 min
- half-life (Pharmacokinetics in dogs; in vivo, iv, 4 mg/kg): 18 min
- half-life (Pharmacokinetics in dogs; in vivo, sc, 4 mg/kg): 65 min
- AUC (Pharmacokinetics in dogs; [1]): 14 min(µg/mL)
- Cmax (Pharmacokinetics in dogs; [1]): 100 ng/mL
- Cmax (Pharmacokinetics in dogs; iv, i.v., 4 mg/kg, non-linear regression, first-order PK model, read-out: Cmax): 35000 ng/mL
- AUC (Pharmacokinetics in dogs; iv, i.v., 4 mg/kg, read-out: AUC (converted)): 15000 ng·h/mL
- AUC (Pharmacokinetics in dogs; sc, s.c., 4 mg/kg, read-out: AUC (converted)): 13500 ng·h/mL
- Cmax (Pharmacokinetics in dogs; sc, s.c., 4 mg/kg, read-out: Cmax): 5800 ng/mL
- Cmax (Pharmacokinetics in mice; iv, 4 mg/kg (100 µg/mouse), non-linear regression, first-order PK model): 12000 ng/mL
- AUC (Pharmacokinetics in mice; iv, 4 mg/kg): 4200 ng·h/mL
- half-life (Pharmacokinetics in mice; iv, 4 mg/kg): 11 min
- half-life (Pharmacokinetics in mice; po): 6.3 min
- half-life (Pharmacokinetics in mice; sc, 4 mg/kg): 11 min
- AUC (Pharmacokinetics in mice; po, p.o. gavage, 4 mg/kg per footnote (100 mg/kg orally)): 80 ng·h/mL
- Cmax (Pharmacokinetics in mice; po, p.o. gavage, 4 mg/kg per footnote (escalated to 100 mg/kg orally)): 140 ng/mL
- AUC (Pharmacokinetics in mice; sc, 4 mg/kg): 3450 ng·h/mL
- Cmax (Pharmacokinetics in mice; sc, 4 mg/kg): 6400 ng/mL
Compound: CC(C)[C@@H]1NC(=O)[C@@H]2C[C@@H](O)CN2C(=O)[C@H]([C@@H](C)O)NC(=O)[C@H](CCCCN)NC(=O)[C@H](CCC(=O)O)NC(=O)[C@H](CC(N)=O)NC(=O)CNC(=O)[C@@H]2C[C@@H](O)CN2C(=O)[C@H](CC(N)=O)NC1=O [AFPep] (cyclo(EKT[Hyp]VN[Hyp]GN))
